Data: US20080292627A1, “Compositions and Methods for Treating Mood and Anxiety Disorders” (THE BOARD OF TRUSTEES OF THE UNIVERSITY OF ILLINOIS, priority 2005, published 2008)

How the values were obtained:
[1] = test system: tubulin; test: SPOT membrane peptide array, tubulin binding to immobilized Gsα-derived peptides; parameters: species or system Ovine; details: equimolar Gsα (150 nM), 37° C., 1 hour; SPOT membrane 1
Text: Peptides were synthesized on to a cellulose membrane with PEG spacer (8×12 cm^2) (AIMS Scientific Products, Braunschweig, Germany) via the C-terminal amino acid in sequential spots by the use of a SPOT synthesis kit (SIGMA genosys, St. Louis, Mo.) (Frank, J. Immunol. Methods 267: 13-26, 2002; Frank, Tetrahedron 48: 9217-9232, 1992). The peptides corresponded to the amino acid sequence of Gsα (Genbank accession number P04895, homo sapiens, Gsα long form; SEQ ID NO: 15), which was divided into overlapping peptides (12 amino acids in length with 7 amino acid overlap between sequential peptide, 73 total spots). Spot 1 corresponded to amino acids 1-12 and Spot 2 corresponded to residues 6-17 in the primary amino acid sequence (SEQ ID NO: 15), etc. […]
Ovine brain tubulin was prepared as previously described (Shelanski et al., Proc. Natl. Acad. Sci. USA. 70: 765-768, 1973). […] Purity of the prepared tubulin, as determined by SDS gel electrophoresis, was always greater than 95%. […] Protein concentrations were determined by Coomasie Blue binding (BioRad Protein Assay) with Bovine Serum Albumin as a standard (Bradford, Anal. Biochem. 72: 248-254, 1976). […]

[2] = test system: tubulin; details: cited from earlier work

## Gsα: stimulatory G protein α subunit of adenylyl cyclase
[1]
  effect of prior incubation of tubulin with Gsα on tubulin binding to the immobilized peptides: prevented tubulin from binding
[2]
  binding to tubulin (in words): bind with a high affinity
[2]; read-out: KD of tubulin binding
  Kd: ~130 nM
